In experiment [1] the test system is phenylbenzoquinone-induced writhing. The experiment can be described thus: Suppression of phenylbenzoquinone irritant-induced writhing (PBQ). Type of experiment: in vivo, Carworth Farms CF-1 mice. To be noted: Mus musculus, mice, read-out: ANALGESIC ACTIVITY ED50, PBQ. The method, then: Test Using Chemical Nociceptive Stimuli
Suppression of Phenylbenzoquinone Irritant-Induced Writhing
Groups of 5 Carworth Farms CF-1 mice are pretreated subcutaneously or orally with saline, morphine, codeine or the test compound. Twenty minutes (if treated subcutaneously) or fifty minutes (if treated orally) later, each group is treated with intraperitoneal injection of phenylbenzoquinone, an irritant known to produce abdominal contractions. The mice are observed for 5 minutes for the presence or absence of writhing starting 5 minutes after the injection of the irritant. MPE50 's of the drug pretreatments in blocking writhing are ascertained.
(§1) Results of the above tests are recorded as percent maximum possible effect (% MPE). The % MPE of each group is statistically compared to the % MPE of the standard and the predrug control values. The % MPE is calculated as follows: [formula]
(§2) By means of the above procedures, the analgesic activity of several compounds of this invention and of certain prior art compounds are determined. The data are reported in terms of maximum possible effect.
(§3) PBQ=phenylbenzoquinone-induced writhing; TF=tail flick; HP=hot plate; RTC=rat tail clamp; FJ=flinch jump; and TI=tail immersion assays.

Experiment [2] has as its system hot plate. The experiment can be described thus: Mouse hot plate analgesic testing (HP). Type of experiment: in vivo, mice. To be noted: Mus musculus; hot plate, mice. As to the method:
(§4) Tests Using Thermal Nociceptive Stimuli
(a) Mouse Hot Plate Analgesic Testing
The method used is modified after Woolfe and MacDonald, J. Pharmacol. Exp. Ther., 80, 300-307 (1944). A controlled heat stimulus is applied to the feet of mice on a 1/8" thick aluminum plate. A 250 watt reflector infrared heat lamp is placed under the bottom of the aluminum plate. A thermal regulator, connected to thermistors on the plate surface, programs the heat lamp to maintain a constant temperature of 57° C. Each mouse is dropped into a glass cylinder (61/2" diameter) resting on the hot plate, and timing is begun when the animal's feet tough the plate. The mouse is observed at 0.5 and 2 hours after treatment when the test compound for the first "flicking"movements of one or both hind feet, or until 10 seconds elapse without such movements. Morphine has an MPE50 =4-5.6 mg./kg. (s.c.).
as §1, §2, §3

The subject of experiment [3] is flinch jump. The experiment can be described thus: Flinch-jump test (FJ). Type of experiment: in vivo, male albino rats, Charles River (Sprague-Dawley) CD strain. To be noted: Rattus norvegicus, rats, 2 hours, read-out: ANALGESIC ACTIVITY ED50, FJ 2 hours.
Description: Tests Using Electrical Nociceptive Stimuli
A modification of the flinch-jump procedure of Tenen, Psychopharmacologia, 12, 278-285 (1968) is used for determining pain thresholds. Male albino rats (175-200 g.) of the Charles River (Sprague-Dawley) CD strain are used. Prior to receiving the drug, the feet of each rat are dipped into a 20% glycerol/saline solution. The animals are then placed in a chamber and presented with a series of 1-second shocks to the feet which are delivered in increasing intensity at 30-second intervals. These intensities are 0.26, 0.39, 0.52, 0.78, 1.05, 1.31, 1.58, 1.86, 2.13, 2.42, 2.72 and 3.04 mA. Each animal's behavior is rated for the presence of (a) flinch, (b) squeak and (c) jump or rapid forward movement at shock onset. Single upward series of shock intensities are presented to each rat just prior to, and at 0.5, 2, 4 and 24 hours subsequent to drug treatment.
as §1, §2, §3

The test system of experiment [4] is tail flick. The experiment can be described thus: Mouse tail flick analgesic testing (TF). The class given is in vivo, mice. To be noted: Mus musculus; tail flick, mice.
Description: as §4
(b) Mouse Tail Flick Analgesic Testing
Tail flick testing in mice is modified after D'Amour and Smith, J. Pharmacol. Exp. Ther., 72, 74-79 (1941), using controlled high intensity heat applied to the tail. Each mouse is placed in a snug-fitting metal cylinder, with the tail protruding through one end. This cylinder is arranged so that the tail lies flat over a concealed heat lamp. At the onset of testing, an aluminum flag over the lamp is drawn back allowing the light beam to pass through the slit and focus onto the end of the tail. A timer is simultaneously activated. The latency of a sudden flick of the tail is ascertained. Untreated mice usually react within 3-4 seconds after exposure to the lamp. The end point for protection is 10 seconds. Each mouse is tested at 0.5 and 2 hours after treatment with morphine and the test compound. Morphine has an MPE50 of 3.2-5.6 mg./kg. (s.c.).
as §1, §2, §3

In experiment [5] the test system is tail immersion. The experiment can be described thus: Tail immersion procedure (TI). Particulars: Mus musculus, 0.5 h; tail immersion, mice, 1/2 hour; read-out: ANALGESIC ACTIVITY ED50, TI 1/2 hour. The class given is in vivo, male albino mice, Charles River CD-1 strain. As to the method:
(c) Tail Immersion Procedure
The method is a modification of the receptacle procedure developed by Benbasset, et al., Arch. int. Pharmacodyn., 122, 434 (1959). Male albino mice (19-21 g.) of the Charles River CD-1 strain are weighed and marked for identification. Five animals are normally used in each drug treatment group with each animal serving as its own control. For general screening purposes, new test agents are first administered at a dose of 56 mg./kg. intraperitoneally or subcutaneously, delivered in a volume of 10 ml./kg. Preceding drug treatment and at 0.5 and 2 hours post drug, each animal is placed in the cylinder. Each cylinder is provided with holes to allow for adequate ventilation and is closed by a round nylon plug through which the animal's tail protrudes. The cylinder is held in an upright position and the tail is completely immersed in the constant temperature waterbath (56° C.). The endpoint for each trial is an energetic jerk or twitch of the tail coupled with a motor response. In some cases, the endpoint may be less vigorous post drug. To prevent undue tissue damage, the trial is terminated and the tail removed from the waterbath within 10 seconds. The response latency is recorded in seconds to the nearest 0.5 second. A vehicle control and a standard of known potency are tested concurrently with screening candidates. If the activity of a test agent has not returned to baseline values at the 2-hour testing point, response latencies are determined at 4 and 6 hours. A final measurement is made at 24 hours if activity is still observed at the end of the test day.
as §1, §2, §3

The subject of experiment [6] is rat tail clamp. The experiment can be described thus: Haffner tail pinch procedure / rat tail clamp (RTC). Type of experiment: in vivo, male albino rats, Charles River (Sprague-Dawley) CD strain. Particulars: 1 hour, read-out: ANALGESIC ACTIVITY ED50, RTC 1 hour. The method, then:
Tests Using Pressure Nociceptive Stimuli
Effect on the Haffner Tail Pinch Procedure
A modification of the procedure of Haffner, Experimentelle Prufung Schmerzstillender. Mittel Deutch Med. Wschr., 55, 731-732 (1929) is used to ascertain the effects of the test compound on aggressive attacking responses elicited by a stimulus pinching the tail. Male albino rats (50-60 b.) of the Charles River (Sprague-Dawley) CD strain are used. Prior to drug treatment, and again at 0.5, 1, 2 and 3 hours after treatment, a Johns Hopkins 2.5-inch "bulldog" clamp is clamped onto the root of the rat's tail. The endpoint at each trial is clear attacking and biting behavior directed toward the offending stimulus, with the latency for attack recorded in seconds. The clamp is removed in 30 seconds if attacking has not yet occurred, and the latency of response is recorded as 30 seconds. Morphine is active at 17.8 mg./kg. (i.p.).
as §1, §2, §3

In experiment [7] the test system is central nervous system activity. Particulars: Loev et al. 1973; cited from earlier work.
The subject of experiment [8] is hashish activity. To be noted: Bergel et al. 1943, cited from earlier work.

Here are results for seven molecules from patent US4243674A, “9-Hydroxydibenzo[b,d]pyrans and intermediates therefore” (priority 1978, dated 1981).

For the molecule `CC(CCCc1ccccc1)Oc1cc(O)c2c(c1)OC(C)(C)[C@@H]1CC[C@@H](O)C[C@@H]21` (relative stereo) [OCH(CH3)(CH2)3C6 H5, dl-6aβ,7,8,9,10,10aα-hexahydro-1-hydroxy-6,6-dimethyl-3-(1-methyl-4-phenylbutoxy)-6H-dibenzo[b,d]pyran-9β-ol], the ED50 amounted to 0.11 mg/kg in experiment [1]; 0.76 mg/kg in experiment [2]; 0.44 mg/kg in experiment [3]; 0.33 mg/kg in experiment [4]; 0.4 mg/kg in experiment [5]; 1.9 mg/kg in experiment [6].
On to `CCCCCC(C)Oc1cc(O)c2c(c1)OC(C)(C)[C@@H]1CC[C@@H](O)C[C@@H]21` (relative stereo) [OCH(CH3)C5 H11, dl-6aβ,7,8,9,10,10aα-Hexahydro-1-Hydroxy-6,6-Dimethyl-3-(2-Heptyloxy)-6H-Dibenzo[b,d]pyran-9β-ol], for which the ED50 in experiment [1] came out at 0.16 mg/kg; in experiment [2], 1.2 mg/kg; in experiment [3] it was 0.3 mg/kg; in experiment [4] it was 0.46 mg/kg; in experiment [5], 0.7 mg/kg; in experiment [6] it was 0.34 mg/kg.
Regarding `CCCCCC(C)Oc1cc(O)c2c(c1)OC(C)(C)C1=C2CC(C)CC1` (stereo not shown) [--OCH(CH3)C5 H11], in experiment [7], the “less active in central nervous system activity than the corresponding compound with the alkyl side chain directly attached” value is reported as 50% and the “times as active as the compound in which oxygen is replaced by methylene” value is given as 5 times.
Take `CCCCOc1cc(O)c2c(c1)OC(C)(C)C1=C2CC(C)CC1` (stereo not shown) [butoxy]: the “biological activity on replacing the 3-pentyl group by alkoxy” value (“biological activity” for short) in experiment [8] is “biological inactivity”.
On to `CCCCCCOc1cc(O)c2c(c1)OC(C)(C)C1=C2CC(C)CC1` (stereo not shown) [hexoxy], for which the “biological activity” value in experiment [8] is listed as “biological inactivity”. Also, the hashish activity entry in experiment [8] (at 10 to 20 mg./kg.) is recorded as “feeble hashish activity”.
`CCCCCCCCOc1cc(O)c2c(c1)OC(C)(C)C1=C2CC(C)CC1` (stereo not shown) [octoxy]: the “biological activity” value in experiment [8] is reported as “biological inactivity”.
Take `CCCCCOc1cc(O)c2c(c1)OC(C)(C)C1=C2CC(C)CC1` (stereo not shown) [pentoxy]: the “biological activity” value in experiment [8] is given as “biological inactivity”.
